12 molecules from patent US9783552B2, “Soluble guanylate cyclase activators” (MERCK SHARP & DOHME CORP., priority 2013, dated 2017) can be followed below.

For the assay, the target named is T1, sGC α1/β1 heterodimer (Homo sapiens, UniProt Q02108+Q02153).
T1 construct: expressed in transfected cells
T1 sequence (Q02108 1-690): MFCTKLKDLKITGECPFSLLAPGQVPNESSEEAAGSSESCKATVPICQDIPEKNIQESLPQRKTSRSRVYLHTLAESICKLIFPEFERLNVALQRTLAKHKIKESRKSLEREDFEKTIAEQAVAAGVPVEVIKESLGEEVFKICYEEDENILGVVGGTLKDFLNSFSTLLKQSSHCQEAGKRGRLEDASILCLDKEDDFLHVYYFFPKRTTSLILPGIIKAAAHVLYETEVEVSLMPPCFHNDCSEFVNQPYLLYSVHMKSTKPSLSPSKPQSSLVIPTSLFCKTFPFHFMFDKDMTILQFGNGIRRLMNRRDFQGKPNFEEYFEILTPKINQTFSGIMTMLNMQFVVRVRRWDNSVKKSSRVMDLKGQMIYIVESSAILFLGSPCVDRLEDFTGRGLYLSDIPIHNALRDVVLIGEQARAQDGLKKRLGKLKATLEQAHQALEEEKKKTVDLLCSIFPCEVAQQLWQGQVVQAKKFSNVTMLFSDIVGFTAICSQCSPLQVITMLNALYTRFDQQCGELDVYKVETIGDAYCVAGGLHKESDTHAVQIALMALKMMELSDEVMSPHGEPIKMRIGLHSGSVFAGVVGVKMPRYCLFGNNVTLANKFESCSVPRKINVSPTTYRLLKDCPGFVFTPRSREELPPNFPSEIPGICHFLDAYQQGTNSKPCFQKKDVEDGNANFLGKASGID
T1 sequence (Q02153 1-619): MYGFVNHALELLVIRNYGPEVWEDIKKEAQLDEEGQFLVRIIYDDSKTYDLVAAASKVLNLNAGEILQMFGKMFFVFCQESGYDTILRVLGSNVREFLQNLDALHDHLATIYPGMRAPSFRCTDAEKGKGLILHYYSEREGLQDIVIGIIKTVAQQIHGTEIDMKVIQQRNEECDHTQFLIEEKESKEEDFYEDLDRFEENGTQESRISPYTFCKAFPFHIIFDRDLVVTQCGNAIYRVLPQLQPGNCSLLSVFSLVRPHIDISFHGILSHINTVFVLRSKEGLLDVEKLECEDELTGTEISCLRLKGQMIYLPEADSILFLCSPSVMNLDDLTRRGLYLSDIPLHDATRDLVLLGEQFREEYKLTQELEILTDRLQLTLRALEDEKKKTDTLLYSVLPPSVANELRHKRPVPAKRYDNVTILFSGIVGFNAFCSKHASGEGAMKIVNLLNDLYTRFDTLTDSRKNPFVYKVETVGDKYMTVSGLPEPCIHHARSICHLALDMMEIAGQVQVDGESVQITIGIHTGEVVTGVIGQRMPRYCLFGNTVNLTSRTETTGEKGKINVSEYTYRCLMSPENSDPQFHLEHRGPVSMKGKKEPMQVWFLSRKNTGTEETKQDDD
Nature of the assay: Cell-Based sGC Functional Assay (CASA Assay). The settings on record: CHO-K1/sGC cells; for EC50: intracellular cGMP by HTRF, 1 hr at 37° C., IP from 4P fit, presence or absence of 1 μM DETA-NO not given; for Emax: cGMP as percentage of maximum cGMP production of Compound A (=100% activation), read-out: % ACT (percent activation). From the text:
Biological Assays: Cell-Based sGC Functional Assay (CASA Assay)
sGC is a heme-containing enzyme that converts GTP to secondary messenger cGMP. Increases in cGMP levels affect several physiological processes including vasorelaxation through multiple downstream pathways. […] Heme-dependent activators (HDAs) preferentially activate sGC containing a ferrous heme group. To determine the effect of sGC activators on enzyme activity, the CASA assay was developed to monitor the generation of cGMP in a cell line that stably expresses the heterodimeric sGC protein.
A CHO-K1 cell line stably expressing the sGC α1/β1 heterodimer was generated using a standard transfection protocol. CHO-K1 cells were transfected with plasmids pIREShyghsGCα1 and pIRESneo-hsGCβ1 simultaneously using FUGENE reagent. Clones that stably express both subunits were selected with hygromycin and neomycin for ˜2 weeks. Clone #7 was chosen for the assay and was designated CHO-K1/sGC. CHO-K1/sGC cells were maintained in F-K12 medium containing 10% heat-inactivated Fetal Bovine Serum (FBS), 100 μg/mL penicillin/streptomycin, 0.5 mg/mL hygromycin and 0.25 mg/mL G418. The cells were then cryopreserved in LN2. On the day of the assay, cells were thawed and resuspended in EBSS Assay Buffer (EAB, Sigma, E3024) supplemented with 5 mM MgCl2, 10 mM HEPES (4-(2-hydroxyethyl)piperazine-1-ethanesulfonic acid) and 0.05% BSA (bovine serum albumin) and cell density was then adjusted to 4×10^5/mL with EAB. IBMX (3-isobutyl-1-methylxanthin, 0.5 mM) was added to inhibit degradation of cGMP. Compounds were diluted from DMSO stock solutions and added to the assay at a final DMSO concentration of 2.5%. Cells were incubated with compounds in the presence and absence of 1 μM of Diethylenetriamine/nitric oxide adduct (DETA-NO; Sigma, 17018) for 1 hr at 37° C. At the end of the incubation period, the reaction was terminated and the cells were lysed with the detection reagents from Cisbio Kits. The level of intracellular cGMP was determined using an HTRF-based assay kit (CisBio, 62GM2PEC), which detects the displacement of a fluorescence labeled cGMP from its specific antibody. The cGMP produced by test compounds was directly compared to the maximum cGMP production (this value was set to equal 100% activation) of the published sGC-HDA Compound A:
[drawing 123] (Example 1 in WO 2010/065275, published Jun. 10, 2010). The test compounds' activity was then expressed as a percentage of Compound A, the standard in every experiment. This percent activation was calculated either in the presence or absence of DETA-NO which was then plotted. IP and maximum fold induction was derived using ADA analysis software for 4P fit.
A general note: TR-FRET usually uses a lanthanide donor and a delayed reading to cut background.

For orientation: EC50 means the concentration that produces a half-maximal response. Take `C#CC1(C2CC2)C(=O)Nc2nc(-c3nc(CCC(F)(F)C(F)(F)F)nc4c3cnn4C)nc(N)c21` (single isomer, unassigned) [Example 24, 4-Amino-5-cyclopropyl-5-ethynyl-2-(1-methyl-6-(3,3,4,4,4-pentafluorobutyl)-1H-pyrazolo[3,4-d]pyrimidin-4-yl)-5H-pyrrolo[2,3-d]pyrimidin-6(7H)-one]: a half-maximal response (EC50) required 105 nM and the Emax came out at 120%.
On the same counts, the results for `Cn1ncc2c(-c3nc(N)c4c(n3)NC(=O)C4(C)N)nc(CCC(F)(F)C(F)(F)F)nc21` (single isomer, unassigned) [Example 50, 4,5-Diamino-5-methyl-2-(1-methyl-6-(3,3,4,4,4-pentafluorobutyl)-1H-pyrazolo[3,4-d]pyrimidin-4-yl)-5H-pyrrolo[2,3-d]pyrimidin-6(7H)-one] are 1240 nM and 101%.
On the same counts, the results for `[2H]C([2H])([2H])n1ncc2c(-c3nc(N)c4c(n3)NC(=O)C4(C)c3ccc(-c4cnn(C)c4)cc3)nc(CCC(F)(F)C(F)(F)F)nc21` (single isomer, unassigned) [Example 46, 4-Amino-5-methyl-5-(4-(1-methyl-1H-pyrazol-4-yl)phenyl)-2-(6-(3,3,4,4,4-pentafluorobutyl)-1-trideuteriomethyl-1H-pyrazolo[3,4-d]pyrimidin-4-yl)-5H-pyrrolo[2,3-d]pyrimidin-6(7H)-one] are 90 nM and 91%.
On the same counts, the results for `COC1(C)C(=O)Nc2nc(-c3nc(CCC(F)(F)C(F)(F)F)nc4c3cnn4C)nc(N)c21` (single isomer, unassigned) [Example 56, 4-Amino-5-methoxy-5-methyl-2-(1-methyl-6-(3,3,4,4,4-pentafluorobutyl)-1H-pyrazolo[3,4-d]pyrimidin-4-yl)-5H-pyrrolo[2,3-d]pyrimidin-6(7H)-one] are 44 nM and 104%.
For the molecule `[2H]C([2H])([2H])n1ncc2c(-c3nc(N)c4c(n3)NC(=O)C4(CCCC)C3CC3)nc(CCC(F)(F)C(F)(F)F)nc21` (single isomer, unassigned) [Example 25, 4-Amino-5-butyl-5-cyclopropyl-2-(6-(3,3,4,4,4-pentafluorobutyl)-1-trideuteriomethyl-1H-pyrazolo[3,4-d]pyrimidin-4-yl)-5H-pyrrolo[2,3-d]pyrimidin-6(7H)-one], the EC50 is 49 nM and the Emax was determined as 80%.
On the same counts, the results for `[2H]C([2H])([2H])n1ncc2c(-c3nc(N)c4c(n3)NC(=O)C4(CC)C(=O)NC3CC3)nc(CCC(F)(F)C(F)(F)F)nc21` (single isomer, unassigned) [Example 34, 4-Amino-N-cyclopropyl-5-ethyl-2-(6-(3,3,4,4,4-pentafluorobutyl)-1-trideuteriomethyl-1H-pyrazolo[3,4-d]pyrimidin-4-yl)-6-oxo-6,7-dihydro-5H-pyrrolo[2,3-d]pyrimidine-5-carboxamide] are 143 nM and 122%.
With `CCOC(=O)C1(C2CC2)C(=O)Nc2nc(-c3nc(CCCC(F)(F)F)nc4c3cnn4C)nc(N)c21` (single isomer, unassigned) [Example 27, Ethyl 4-amino-5-cyclopropyl-2-(1-methyl-6-(4,4,4-trifluorobutyl)-1H-pyrazolo[3,4-d]pyrimidin-4-yl)-6-oxo-6,7-dihydro-5H-pyrrolo[2,3-d]pyrimidine-5-carboxylate], the EC50 was determined as 602 nM and the Emax came out at 98%.
On the same counts, the results for `[2H]C([2H])([2H])n1ncc2c(-c3nc(N)c4c(n3)NC(=O)C4(C)c3ccccc3)nc(CCC(F)(F)C(F)(F)F)nc21` (single isomer, unassigned) [Example 13, 4-Amino-5-methyl-2-(6-(3,3,4,4,4-pentafluorobutyl)-1-trideuteriomethyl-1H-pyrazolo[3,4-d]pyrimidin-4-yl)-5-phenyl-5H-pyrrolo[2,3-d]pyrimidin-6(7H)-one] are 40 nM and 101%.
For the molecule `[2H]C([2H])([2H])OC1(C)C(=O)Nc2nc(-c3nc(CCC(F)(F)C(F)(F)F)nc4c3cnn4C)nc(N)c21` (stereo not drawn) [Example 57, 4-Amino-5-methyl-5-trideuteriomethoxy-2-(1-methyl-6-(3,3,4,4,4-pentafluorobutyl)-1H-pyrazolo[3,4-d]pyrimidin-4-yl)-5H-pyrrolo[2,3-d]pyrimidin-6(7H)-one], the response was half-maximal at 113 nM (EC50) and the Emax amounted to 139%.
Take `[2H]C([2H])([2H])n1nnc2c(-c3nc(N)c4c(n3)NC(=O)C4(C)c3ccccc3)nc(CCC(F)(F)C(F)(F)F)nc21` (single isomer, unassigned) [Example 68, 4-Amino-5-methyl-2-(5-(3,3,4,4,4-pentafluorobutyl-3-trideuteriomethyl)-3H-[1,2,3]triazolo[4,5-d]pyrimidin-7-yl)-5-phenyl-5H-pyrrolo[2,3-d]pyrimidin-6(7H)-one]: the response was half-maximal at 403 nM (EC50) and the Emax came to 107%.
Regarding `[2H]C([2H])([2H])n1ncc2c(-c3nc(N)c4c(n3)NC(=O)C4(C)C(=O)Nc3cnn(C)c3)nc(CCC(F)(F)C(F)(F)F)nc21` (single isomer, unassigned) [Example 42, 4-amino-5-methyl-N-(1-methyl-1H-pyrazol-4-yl)-2-(6-(3,3,4,4,4-pentafluorobutyl)-1-trideuteriomethyl-1H-pyrazolo[3,4-d]pyrimidin-4-yl)-6-oxo-6,7-dihydro-5H-pyrrolo[2,3-d]pyrimidine-5-carboxamide], the EC50 turned out to be 111 nM and the Emax is 134%.
On the same counts, the results for `[2H]C([2H])([2H])n1ncc2c(-c3nc(N)c4c(n3)NC(=O)C4(C)C3CC3)nc(CCC(F)(F)C(F)(F)F)nc21` (single isomer, unassigned) [Example 17, 4-Amino-5-cyclopropyl-5-methyl-2-(6-(3,3,4,4,4-pentafluorobutyl)-1-trideuteriomethyl-1H-pyrazolo[3,4-d]pyrimidin-4-yl)-5H-pyrrolo[2,3-d]pyrimidin-6(7H)-one] are 286 nM and 104%.
